# Patent US20080175927A1, “METHOD FOR PREVENTING PLANT DISEASES” (priority 2005, published 2008)
# Marks after values point to notes of the source that are not given here.
# Key:
# damping-off of cucumber = assay: Paper disk method, growth inhibition by TLC-purified berberine and derivatives; assay type: cell-based, Pythium ultimum; design: key: ++: strong inhibition; +: moderate inhibition; −: no inhibition; conditions: purified from TLC
# Text: (§1) To confirm antimicrobial activity of berberine and derivative thereof, we collected TLC bands of berberine and derivative thereof and investigated antimicrobial activity of berberine and derivative thereof against known plant pathogens using paper disk method (Ericsson, H., Hogman, C & Wickman. K. 1954, Scandinavian Journal of Clinical Laboratory Investigation 6, Suppl. 11:21-26). […] Therefore, the result of the aforementioned HPLC analysis, ^1H NMR analysis and antimicrobial activity, the active antimicrobial compound exisisting in the extract of Coptis Rhizoma, Phellodendron genus plant, Sanguniaria canadensis, and Chelidonuum majus var. asiaticum was identified as berberine or derivatives thereof.
# glomellera cingurata = assay: as above; assay type: cell-based; design: key: ++: strong inhibition; +: moderate inhibition; −: no inhibition; conditions: purified from TLC
# Text: as §1
# [1] = test system: Sphaerotheca aphanis var. aphanis; assay: Preventive test against strawberry powdery mildew, disease incidence rate; assay type: in vivo; conditions: for PR (prevention rate): 7 days after treatment; for DIR B (disease incident rate 7 days after treatment), I: replicate I; for DIR B (disease incident rate 7 days after treatment), II: replicate II; for DIR B (disease incident rate 7 days after treatment), III: replicate III
# Procedure: To measure prevention effect against powdery mildew of extract of Coptis Rhizoma, Phellodendron amurense, Sanguniaria canadensis and Chelidonuum majus var. asiaticum and berberine and its derivative, we performed a preventive test agaist strawberry powdery mildew resulted from infection of Sphaerotheca aphanis var. aphanis using the standard extract obtained by Example 1 or berberine and derivative thereof. The above extract (30 mL) obtained from 10 g of fresh plant materials was dissolved in 200 μg/ml of Tween 20 solution. Final concentration of berberine and derivatives thereof was 400 μg/ml. Negative control was prepared by adding 250 μg/ml of Tween 20 in distilled water. As a positive control reagent, 30% solution of Rifzol wettable powder (Rifzol W P, Aventis Corp Science, Korea) is used and the Rifzol solution was diluted 1:4000 and treated with amount of 75 μg/ml which is common packing concentration.
# In house condition of sandy-loamy soil, disease incidence rate was determined 7 days after treatment of the above mentioned reagents compared to one of non-treatment control and the test was repeated 3 times by randomized Block Design.
# Before treatment of the reagents, the disease incidence rate of strawberry powdery mildew was 34.1%. The disease incidence rate is defined as percentage of disease developed plants among total investigated plants.
# We investigated preventive effects of standard forms of berberine chloride, berberine iodide and berberine bromide and the standard extract obtained by Example 1 against strawberry powdery mildew at various concentrations according to the method of Example 4. […] When the freeze-dried standard extract obtained by Example 1 was used at concentration of at least 1 μg/ml or preferably 10 μg/ml, it prevented strawberry powdery mildew resulted from an infection of Sphaerotheca aphanis var. aphanis. From the above effect, the present inventors confirmed that the standard extract could substitute for synthetic chemical pesticides.
# [2] = test system: gray mold rot of strawberry; assay: Paper disk method, growth inhibition by TLC-purified berberine and derivatives; assay type: cell-based, Botrytis cinerea; design: key: ++: strong inhibition; +: moderate inhibition; −: no inhibition; conditions: purified from TLC
# Text: as §1
# [3] = extracts 30 mL from 10 g plant, berberine salts 400 μg/ml, Rifzol 75 μg/ml
# [4] = mean of I-III, extracts 30 mL from 10 g plant, berberine salts 400 μg/ml, Rifzol 75 μg/ml, negative control 19.0
SMILES,"Growth inhibition, damping-off of cucumber (damping-off of cucumber)","Growth inhibition, glomellera cingurata (glomellera cingurata)",PR (prevention rate) ([1]; 1 μg/ml) [%],"DIR B (disease incident rate 7 days after treatment), MV (mean value) ([1]; 1 μg/ml, control 35.3) [%]","DIR B (disease incident rate 7 days after treatment), I ([1]; 1 μg/ml) [%]","DIR B (disease incident rate 7 days after treatment), II ([1]; 1 μg/ml) [%]","DIR B (disease incident rate 7 days after treatment), III ([1]; 1 μg/ml) [%]",PR (prevention rate) ([1]; 10 μg/ml) [%],"DIR B (disease incident rate 7 days after treatment), MV (mean value) ([1]; 10 μg/ml, control 35.3) [%]","DIR B (disease incident rate 7 days after treatment), I ([1]; 10 μg/ml) [%]","DIR B (disease incident rate 7 days after treatment), II ([1]; 10 μg/ml) [%]","DIR B (disease incident rate 7 days after treatment), III ([1]; 10 μg/ml) [%]",PR (prevention rate) ([1]; 100 μg/ml) [%],"DIR B (disease incident rate 7 days after treatment), MV (mean value) ([1]; 100 μg/ml, control 35.3) [%]","DIR B (disease incident rate 7 days after treatment), I ([1]; 100 μg/ml) [%]","DIR B (disease incident rate 7 days after treatment), II ([1]; 100 μg/ml) [%]","DIR B (disease incident rate 7 days after treatment), III ([1]; 100 μg/ml) [%]",PR (prevention rate) ([1]; 300 μg/ml) [%],"DIR B (disease incident rate 7 days after treatment), MV (mean value) ([1]; 300 μg/ml, control 35.3) [%]","DIR B (disease incident rate 7 days after treatment), I ([1]; 300 μg/ml) [%]",also measured
"COc1ccc2cc3[n+](cc2c1OC)CCc1cc2c(cc1-3)OCO2.[Br-] [berberine bromine, berberine bromide]",+,+,12.5,30.9,29.6,27.6,35.4,47.3,18.6,13.5,17.6,24.8,61.5,13.6,13.2,11.7,15.8,71.7,10.0,8.9,"DIR B (disease incident rate 7 days after treatment), II ([1]; 300 μg/ml): 12.9%; DIR B (disease incident rate 7 days after treatment), III ([1]; 300 μg/ml): 8.3%; PR (prevention rate) ([1]; 1000 μg/ml): 78.8%; DIR B (disease incident rate 7 days after treatment), MV (mean value) ([1]; 1000 μg/ml, control 35.3): 7.5%; DIR B (disease incident rate 7 days after treatment), I ([1]; 1000 μg/ml): 5.9%; DIR B (disease incident rate 7 days after treatment), II ([1]; 1000 μg/ml): 9.4%; DIR B (disease incident rate 7 days after treatment), III ([1]; 1000 μg/ml): 7.2%; PR (prevention rate) [1, 3]: 66.8%; DIR B (disease incident rate 7 days after treatment), MV (mean value) [1, 4]: 6.3%; DIR B (disease incident rate 7 days after treatment), I [1, 3]: 5.2%; DIR B (disease incident rate 7 days after treatment), II [1, 3]: 6.1%; DIR B (disease incident rate 7 days after treatment), III [1, 3]: 6.1%; Growth inhibition, gray mold rot of strawberry [2]: +"
COc1ccc2cc3[n+](cc2c1OC)CCc1cc2c(cc1-3)OCO2 [berberine chloride],++,++,12.2,31.0,30.2,30.8,32.1,38.2,21.8,23.4,22.1,19.9,73.7,9.3,8.2,7.7,12.1,77.3,8.0,5.2,"DIR B (disease incident rate 7 days after treatment), II ([1]; 300 μg/ml): 8.5%; DIR B (disease incident rate 7 days after treatment), III ([1]; 300 μg/ml): 10.3%; PR (prevention rate) ([1]; 1000 μg/ml): 84.7%; DIR B (disease incident rate 7 days after treatment), MV (mean value) ([1]; 1000 μg/ml, control 35.3): 5.4%; DIR B (disease incident rate 7 days after treatment), I ([1]; 1000 μg/ml): 3.4%; DIR B (disease incident rate 7 days after treatment), II ([1]; 1000 μg/ml): 8.7%; DIR B (disease incident rate 7 days after treatment), III ([1]; 1000 μg/ml): 4.2%; PR (prevention rate) [1, 3]: 69.5^c %; DIR B (disease incident rate 7 days after treatment), MV (mean value) [1, 4]: 5.8%; DIR B (disease incident rate 7 days after treatment), I [1, 3]: 5.9%; DIR B (disease incident rate 7 days after treatment), II [1, 3]: 5.1%; DIR B (disease incident rate 7 days after treatment), III [1, 3]: 5.1%; Growth inhibition, gray mold rot of strawberry [2]: +"
COc1ccc2cc3[n+](cc2c1OC)CCc1cc2c(cc1-3)OCO2.[I-] [berberine iodide],+,+,9.9,31.8,30.2,29.5,35.8,35.4,22.8,25.8,23.1,19.6,73.1,9.5,10.2,8.9,9.3,78.8,7.5,6.2,"DIR B (disease incident rate 7 days after treatment), II ([1]; 300 μg/ml): 7.9%; DIR B (disease incident rate 7 days after treatment), III ([1]; 300 μg/ml): 8.4%; PR (prevention rate) ([1]; 1000 μg/ml): 82.2%; DIR B (disease incident rate 7 days after treatment), MV (mean value) ([1]; 1000 μg/ml, control 35.3): 6.3%; DIR B (disease incident rate 7 days after treatment), I ([1]; 1000 μg/ml): 4.3%; DIR B (disease incident rate 7 days after treatment), II ([1]; 1000 μg/ml): 9.3%; DIR B (disease incident rate 7 days after treatment), III ([1]; 1000 μg/ml): 5.2%; PR (prevention rate) [1, 3]: 63.2%; DIR B (disease incident rate 7 days after treatment), MV (mean value) [1, 4]: 7.0%; DIR B (disease incident rate 7 days after treatment), I [1, 3]: 7.1%; DIR B (disease incident rate 7 days after treatment), II [1, 3]: 6.6%; DIR B (disease incident rate 7 days after treatment), III [1, 3]: 6.6%; Growth inhibition, gray mold rot of strawberry [2]: +"
